Reference: patent US10981926B2 (Janssen Pharmaceutica NV, priority 2016, dated 2021)

Experiments:
[1] = target: T1, wild-type Androgen Receptor (AR-wt) (Homo sapiens (Human), UniProt P10275); assay: LNCaP-AR-wt ANT reporter assay (antagonist mode); format: cell-based; conditions: antagonist mode; for Emax: maximum % inhibition of R1881 control response over tested concentration range, read-out: LNCaP-AR-wt ANT MAX % Inh; for IC50: pIC50 = −Log10(IC50 in Molar), read-out: LNCaP-AR-wt ANT pIC50 (converted)
T1 sequence (P10275 whole entry): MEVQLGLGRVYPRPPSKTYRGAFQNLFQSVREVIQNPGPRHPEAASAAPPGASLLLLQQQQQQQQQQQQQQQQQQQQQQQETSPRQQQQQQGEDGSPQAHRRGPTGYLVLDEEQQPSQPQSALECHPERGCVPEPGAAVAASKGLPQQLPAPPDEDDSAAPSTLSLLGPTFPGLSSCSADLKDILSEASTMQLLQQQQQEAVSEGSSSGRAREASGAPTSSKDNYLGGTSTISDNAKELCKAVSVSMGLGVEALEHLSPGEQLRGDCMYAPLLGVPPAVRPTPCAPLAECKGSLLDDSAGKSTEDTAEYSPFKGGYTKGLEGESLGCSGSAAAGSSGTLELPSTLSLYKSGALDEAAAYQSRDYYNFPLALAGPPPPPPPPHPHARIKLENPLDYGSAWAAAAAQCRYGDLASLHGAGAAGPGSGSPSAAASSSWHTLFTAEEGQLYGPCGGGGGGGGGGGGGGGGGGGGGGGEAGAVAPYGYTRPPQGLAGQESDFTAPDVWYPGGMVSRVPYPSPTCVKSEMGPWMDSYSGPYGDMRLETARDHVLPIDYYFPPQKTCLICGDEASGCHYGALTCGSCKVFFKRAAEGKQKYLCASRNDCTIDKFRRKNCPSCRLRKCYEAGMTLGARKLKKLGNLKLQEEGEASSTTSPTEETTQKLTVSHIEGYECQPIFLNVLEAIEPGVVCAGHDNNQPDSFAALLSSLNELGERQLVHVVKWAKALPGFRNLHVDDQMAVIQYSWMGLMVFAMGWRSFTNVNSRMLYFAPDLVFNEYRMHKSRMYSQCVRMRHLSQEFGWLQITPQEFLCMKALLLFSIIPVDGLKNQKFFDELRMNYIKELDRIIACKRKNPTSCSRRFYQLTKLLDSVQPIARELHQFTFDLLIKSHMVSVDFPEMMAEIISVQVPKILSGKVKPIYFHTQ

[2] = target: T1, wild-type Androgen Receptor (AR-wt); assay: LNCaP-AR-wt AG reporter assay (agonist mode); format: cell-based; conditions: agonist mode; for Emax: maximum % stimulation over tested concentration range, read-out: LNCaP-AR-wt AG MAX % Stim; for EC50: pEC50 = −Log10(EC50 in Molar), read-out: LNCaP-AR-wt AG pEC50 (converted)
[3] = target: T2, F876L mutant Androgen Receptor (AR-F876L) (Homo sapiens (Human), UniProt P10275, F877L); assay: LNCaP-AR-F876L ANT reporter assay (antagonist mode); format: cell-based; conditions: antagonist mode; for Emax: maximum % inhibition of R1881 control response over tested concentration range, read-out: LNCaP-AR-F876L ANT MAX % Inh; for IC50: pIC50 = −Log10(IC50 in Molar), read-out: LNCaP-AR-F876L ANT pIC50 (converted)
T2 sequence (P10275 whole entry F877L): as the sequence (P10275 whole entry) above, with F877L counted along it

[4] = target: T2, F876L mutant Androgen Receptor (AR-F876L); assay: LNCaP-AR-F876L AG reporter assay (agonist mode); format: cell-based; conditions: agonist mode; for Emax: maximum % stimulation over tested concentration range, read-out: LNCaP-AR-F876L AG MAX % Stim; for EC50: pEC50 = −Log10(EC50 in Molar), read-out: LNCaP-AR-F876L AG pEC50 (converted)
rGABA-gated Cl− channel = assay: GABA-Gated Cl Channel Antagonist Radioligand Binding Assay; design: species or system rat; conditions: 10 μM single point, [35S]-TBPS, cerebral cortex membrane homogenates
Outline: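 Rat cerebral cortex membranes (120 μg protein) incubated 120 min at 22° C with 3 nM […] in 50 mM Na2HPO4/KH2PO4 pH 7.4, 500 mM NaCl; nonspecific binding defined with 20 μM picrotoxinin. Bound label counted after filtration; values are percent inhibition of specific binding at 10 μM compound.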

[5] = system: androgen dependent signaling (androgen sensitive organs); assay: Hershberger Assay; format: in vivo, rat; conditions: 3 mg/kg (positive control), 10 days, with TP 0.4 mg/kg, castrated rats, mean ± SD (n=6)
Experimental: The effect of AR antagonists on androgen dependent signaling in vivo was assessed using the Hershberger assay. In this assay, peripubertal castrated male Sprague-Dawley rats were administered AR antagonists described herein in the presence of testosterone (0.4 mg/kg testosterone propionate) and the weights of androgen dependent organs measured. Dosing was continued for 10 days and measurements taken 24 h after the last dose. The extent of antagonism of AR and consequent inhibition of organ growth was evaluated by comparison to the castration control. Compounds of Formula (I) were dosed orally QD and an endpoint assessment made by change in weight of 5 androgen sensitive organs (ASO): Paired Cowper's Glands (CG), Seminal Vesicles with Fluids and Coagulating Glands (SVCG), Glans Penis (GP), Ventral Prostate (VP) and Levator Ani-Bulbocavernosus Complex (LABC)). According to assay guidelines, statistically significant suppression of ASO is required in 2 of 5 organs for a compound to be classified as an anti-androgen (analysis was performed by t-test/Mann-Whitney).
Unless otherwise stated, compounds defined herein were administered at 30 mg/kg and flutamide (FT), positive control, at 3 mg/kg. All compounds were co-administered with testosterone propionate (TP, 0.4 mg/kg) which was also administered alone, untreated control, (castrated only rats served as the control for complete androgen blockade). A statistically significant change in ASO achieved in at least 2 of 5 organs was indicative of an active compound.

Emax [1]	IC50 [1]	Emax [2]	EC50 [2]	Emax [3]	IC50 [3]	Emax [4]	EC50 [4]	rGABA-gated Cl− channel % inh @10 μM (rGABA-gated Cl− channel)	Compound	ASO Organ Growth (% of TP control) SVCG [5]	ASO Organ Growth (% of TP control) VP [5]
103%	224 nM	-0.1%	> 15100 nM	103%	158 nM	1.1%	> 15100 nM	87.4%	CN1CCOC(c2ccc(N3C(=S)N(c4cnc(C#N)c(C(F)(F)F)c4)C(=O)C34CCC4)cc2)C1 (centres unmarked) [Cpd 241, 5-[8-[4-(4-methylmorpholin-2-yl)phenyl]-5-oxo-7-thioxo-6,8-diazaspiro[3.4]octan-6-yl]-3-(trifluoromethyl)pyridine-2-carbonitrile]	–	–
99.9%	562 nM	0.1%	> 15100 nM	104%	245 nM	-0.1%	> 15100 nM	60.2%	CN1CCC(Sc2ccc(N3C(=S)N(c4cnc(C#N)c(C(F)(F)F)c4)C(=O)C34CCC4)cc2)CC1 [Cpd 242, 5-[8-[4-[(1-methyl-4-piperidyl)sulfanyl]phenyl]-5-oxo-7-thioxo-6,8-diazaspiro[3.4]octan-6-yl]-3-(trifluoromethyl)pyridine-2-carbonitrile]	–	–
101%	1620 nM	0.2%	> 15100 nM	100%	347 nM	0.7%	> 15100 nM	57.2%	N#Cc1ncc(N2C(=O)C3(CCC3)N(c3ccc(C4CNCCO4)cc3)C2=S)cc1C(F)(F)F (centres unmarked) [Cpd 243, 5-[8-(4-morpholin-2-ylphenyl)-5-oxo-7-thioxo-6,8-diazaspiro[3.4]octan-6-yl]-3-(trifluoromethyl)pyridine-2-carbonitrile]	–	–
–	–	–	–	–	–	–	–	–	CC(C)C(=O)Nc1ccc([N+](=O)[O-])c(C(F)(F)F)c1 [Flutamide, flutamide, reference compound]	16.6 ± 16.3 % of TP control	24.4 ± 35.5 % of TP control
